Measurements reported in patent US8435978B2, “Substituted sulfonamide compounds” (Gruenenthal GmbH, priority 2006, dated 2013).
Where a name gives a salt, the structure may show the parent alone. Read-outs that look alike come from different tables or passages of the source.

What was measured:
human B1R receptor = target: T1, human B1R receptor (Homo sapiens, UniProt P46663); experiment: Functional study on the bradykinin receptor 1 (B1R), FLIPR Ca2+ assay, hB1R cells; format: cell-based; details: agonist Lys-Des-Arg9-bradykinin 0.5 nM, % inhibition compared with the maximum achievable inhibition; for inhibition at 10 µM: read-out: B1R Antagonism, human [10 μM] % Inhibition
T1 construct: host or cells: CHO K1 cells (Chinese hamster ovary), stably transfected
T1 sequence (P46663 1-353): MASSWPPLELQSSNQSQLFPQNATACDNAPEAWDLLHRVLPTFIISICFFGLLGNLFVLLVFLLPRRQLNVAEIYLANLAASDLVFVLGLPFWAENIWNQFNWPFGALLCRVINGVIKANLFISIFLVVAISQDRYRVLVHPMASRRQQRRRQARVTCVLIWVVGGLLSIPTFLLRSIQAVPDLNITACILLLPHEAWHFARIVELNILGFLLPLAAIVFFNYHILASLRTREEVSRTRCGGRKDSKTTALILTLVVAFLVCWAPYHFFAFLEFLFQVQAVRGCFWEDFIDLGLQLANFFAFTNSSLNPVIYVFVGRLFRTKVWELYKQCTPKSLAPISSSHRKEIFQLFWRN
How it was run: (§1)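 CHO K1 cells stably expressing human or rat B1R were loaded with Fluo-4 and read on a FLIPR (ex 488/em 540 nm, peak fluorescence). Test compounds at 10 μM were added first, then after 10 min agonist: Lys-Des-Arg9-bradykinin 0.5 nM for hB1R, Des-Arg9-bradykinin 100 nM for rB1R; % inhibition versus maximum inhibition.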

B1R receptor of the rat = target: T2, B1R receptor of the rat (Rattus norvegicus, UniProt P97583); experiment: Functional study on the bradykinin receptor 1 (B1R), FLIPR Ca2+ assay, rB1R cells; format: cell-based; details: agonist Des-Arg9-bradykinin 100 nM, % inhibition compared with the maximum achievable inhibition; for inhibition at 10 µM: read-out: B1R Antagonism, rat [10 μM] % Inhibition
T2 construct: host or cells: CHO K1 cells (Chinese hamster ovary), stably transfected
T2 sequence (P97583 1-337): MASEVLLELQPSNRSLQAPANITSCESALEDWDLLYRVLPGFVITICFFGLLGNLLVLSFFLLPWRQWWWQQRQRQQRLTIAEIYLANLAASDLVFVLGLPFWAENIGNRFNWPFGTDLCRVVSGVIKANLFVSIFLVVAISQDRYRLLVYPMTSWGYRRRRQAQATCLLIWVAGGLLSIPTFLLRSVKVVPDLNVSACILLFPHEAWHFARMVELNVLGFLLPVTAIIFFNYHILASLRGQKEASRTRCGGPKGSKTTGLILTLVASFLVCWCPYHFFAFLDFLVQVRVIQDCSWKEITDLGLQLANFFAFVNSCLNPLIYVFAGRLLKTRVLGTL
How it was run: as §1

[1] = test substance 10 μM, hB1R CHO K1 cells
[2] = test substance 10 μM, rB1R CHO K1 cells

SMILES | inhibition at 10 µM (human B1R receptor; CHO-K1, test substance 10 μM) [%] | inhibition at 10 µM (B1R receptor of the rat; CHO-K1, test substance 10 μM) [%] | also measured
COc1cc(C)c(S(=O)(=O)N2CCCC2COCC(=O)N2CCN(c3ncccc3C#N)CC2)c(C)c1 (stereo not shown) [Example 312, 2-(4-(2-((1-(4-methoxy-2,6-dimethylphenylsulfonyl)pyrrolidin-2-yl)methoxy)acetyl)piperazin-1-yl)nicotinonitrile] | 98.5 | 98.7 | 
COc1cc(C)c(S(=O)(=O)N2CCCC2COCC(=O)N(Cc2ccccc2)c2cccc(C)n2)c(C)c1 (stereo not shown) [Example 464, N-benzyl-2-((1-(4-methoxy-2,6-dimethylphenylsulfonyl)pyrrolidin-2-yl)methoxy)-N-(6-methylpyridin-2-yl)acetamide] | 56.6 | 102 | 
COc1cc(C)c(S(=O)(=O)N2CCC[C@H]2COCC(=O)N2CCN(CC3CCN(C)CC3)CC2)c(C)c1 [Example 181, (S)-2-((1-(4-methoxy-2,6-dimethylphenylsulfonyl)pyrrolidin-2-yl)methoxy)-1-(4-((1-methylpiperidin-4-yl)methyl)piperazin-1-yl)ethanone] | 105 | 98.5 | 
COc1ccccc1N1CCN(C(=O)COCC2CCCCN2S(=O)(=O)c2c(Cl)cccc2Cl)CC1 (stereo not shown) [Example 498, 2-((1-(2,6-dichlorophenylsulfonyl)piperidin-2-yl)methoxy)-1-(4-(2-methoxyphenyl)piperazin-1-yl)ethanone] | 94.2 | 96.7 | 
O=C(COCC1CCCN1S(=O)(=O)c1c(Cl)cccc1Cl)N1CCN(c2ccc(Cl)c(Cl)c2)CC1 (stereo not shown) [Example 356, 1-(4-(3,4-dichlorophenyl)piperazin-1-yl)-2-((1-(2,6-dichlorophenylsulfonyl)pyrrolidin-2-yl)methoxy)ethanone] | 43 | 103 | 
COc1ccc(S(=O)(=O)N2CCCCC2COCC(=O)N2CCN(Cc3cccc(C)c3)CC2)cc1 (stereo not shown) [Example 219, 2-((1-(4-methoxyphenylsulfonyl)piperidin-2-yl)methoxy)-1-(4-(3-methylbenzyl)piperazin-1-yl)ethanone] | 5.04 | 96.2 | 
COc1cc(C)c(S(=O)(=O)N2CCCCC2COCC(=O)NCc2ccc(N3CCN(C)CC3)cc2)c(C)c1 (stereo not shown) [Example 434, 2-((1-(4-methoxy-2,6-dimethylphenylsulfonyl)piperidin-2-yl)methoxy)-N-(4-(4-methylpiperazin-1-yl)benzyl)acetamide] | 104 | 101 | 
O=C(COCC1CCCCN1S(=O)(=O)c1c(Cl)cccc1Cl)N1CCN(Cc2ccccc2F)CC1 (stereo not shown) [Example 454, 2-((1-(2,6-dichlorophenylsulfonyl)piperidin-2-yl)methoxy)-1-(4-(2-fluorobenzyl)piperazin-1-yl)ethanone] | 102 | 100 | 
COc1cc(C)c(S(=O)(=O)N2CCCCC2COCC(=O)NCc2ccc(CN3CCN(C)CC3)cc2)c(C)c1 (stereo not shown) [Example 7, 2-[1-(4-methoxy-2,6-dimethyl-phenylsulfonyl)-piperidin-2-ylmethoxy]-N-[4-(4-methyl-piperazin-1-ylmethyl)-benzyl]-acetamide] | 102 | 99.3 | 
COc1cc(C)c(S(=O)(=O)N2CCCCC2COCC(=O)NCc2ccc(N3CCOCC3)cc2)c(C)c1 (stereo not shown) [Example 439, 2-((1-(4-methoxy-2,6-dimethylphenylsulfonyl)piperidin-2-yl)methoxy)-N-(4-morpholinobenzyl)acetamide] |  |  | B1R Antagonism, human [10 μM] % Inhibition (human B1R receptor; [1]): 48.25%; B1R Antagonism, rat [10 μM] % Inhibition (B1R receptor of the rat; [2]): 100.94%
Cc1nccn1-c1ccc(NC(=O)COCC2CCCCN2S(=O)(=O)c2c(Cl)cccc2Cl)cc1 (stereo not shown) [Example 527, 2-((1-(2,6-dichlorophenylsulfonyl)piperidin-2-yl)methoxy)-N-(4-(2-methyl-1H-imidazol-1-yl)phenyl)acetamide] | 97.2 | 97.3 | 
CN1CCN(c2ccc(CNC(=O)COCC3CCCN3S(=O)(=O)c3c(Cl)cc(Cl)cc3Cl)cc2)CC1 (stereo not shown) [Example 29, N-[4-(4-methyl-piperazin-1-yl)-benzyl]-2-[1-(2,4,6-trichloro-phenylsulfonyl)-pyrrolidin-2-ylmethoxy]-acetamide] | 84.4 | 110 | 
O=C(COCC1CCCCN1S(=O)(=O)c1cccc2ccccc12)N1CCCC1CN1CCCCC1 (stereo not shown) [Example 64, 2-[1-(naphthyl-1-sulfonyl)-piperidin-2-ylmethoxy]-1-(2-piperidin-1-ylmethyl-pyrrolidin-1-yl)-ethanone] |  |  | B1R Antagonism, human [10 μM] % Inhibition (human B1R receptor; [1]): 57.92%; B1R Antagonism, rat [10 μM] % Inhibition (B1R receptor of the rat; [2]): 25.48%
CN(C(=O)COCC1CCCCN1S(=O)(=O)c1c(Cl)cccc1Cl)[C@H]1CCN(Cc2ccccc2)C1 (stereo partly drawn) [Example 315, N—((S)-1-benzylpyrrolidin-3-yl)-2-((1-(2,6-dichlorophenylsulfonyl)piperidin-2-yl)methoxy)-N-methylacetamide] | 105 | 101 | 
COc1ccc(N2CCN(C(=O)COCC3CCCN3S(=O)(=O)c3c(Cl)cc(Cl)cc3Cl)CC2)cc1 (stereo not shown) [Example 328, 1-(4-(4-methoxyphenyl)piperazin-1-yl)-2-((1-(2,4,6-trichlorophenylsulfonyl)pyrrolidin-2-yl)methoxy)ethanone] | 104 | 102 | 
COc1cc(C)c(S(=O)(=O)N2CCCCC2COCC(=O)N2CCC(=O)CC2)c(C)c1 (stereo not shown) [Example 116, 1-(2-((1-(4-methoxy-2,6-dimethylphenylsulfonyl)piperidin-2-yl)methoxy)acetyl)piperidin-4-one] |  |  | inhibition at 10 µM (human B1R receptor; [1]): 74.2%; inhibition at 10 µM (B1R receptor of the rat; [2]): 101%
COc1cc(C)c(S(=O)(=O)N2CCCCC2COCC(=O)N2CCN(CCN(C(C)C)C(C)C)CC2)c(C)c1 (stereo not shown) [Example 341, 1-(4-(2-(diisopropylamino)ethyl)piperazin-1-yl)-2-((1-(4-methoxy-2,6-dimethylphenylsulfonyl)piperidin-2-yl)methoxy)ethanone] | 105 | 102 | 
COc1cc(C)c(S(=O)(=O)N2CCCCC2COCC(=O)Nc2ccccc2N2CCN(C)CC2)c(C)c1 (stereo not shown) [Example 431, 2-((1-(4-methoxy-2,6-dimethylphenylsulfonyl)piperidin-2-yl)methoxy)-N-(2-(4-methylpiperazin-1-yl)phenyl)acetamide] | 28.4 | 96.2 | 
O=C(COCC1CCCCN1S(=O)(=O)c1c(Cl)cccc1Cl)N1CCN(c2ccc(Cl)c(Cl)c2)CC1 (stereo not shown) [Example 404, 1-(4-(3,4-dichlorophenyl)piperazin-1-yl)-2-((1-(2,6-dichlorophenylsulfonyl)piperidin-2-yl)methoxy)ethanone] | 55.1 | 98.5 | 
O=C(COCC1CCCCN1S(=O)(=O)c1ccc(Cl)c(Cl)c1)N1CCN(CCN2CCCCC2)CC1 (stereo not shown) [Example 42, 2-((1-(3,4-dichlorophenylsulfonyl)piperidin-2-yl)methoxy)-1-(4-(2-(piperidin-1-yl)-ethyl)piperazin-1-yl)ethanone] | 70.6 | 57.9 | 
COc1cc(C)c(S(=O)(=O)N2CCCCC2COCC(=O)Nc2ccncn2)c(C)c1 (stereo not shown) [Example 372, 2-((1-(4-methoxy-2,6-dimethylphenylsulfonyl)piperidin-2-yl)methoxy)-N-(pyrimidin-4-yl)acetamide] | -2.76 | 83.8 | 
CN1CCC(N2CCN(C(=O)COCC3CCCCN3S(=O)(=O)c3cccc4cnccc34)CC2)CC1 (stereo not shown) [Example 176, 2-((1-(isoquinolin-5-ylsulfonyl)piperidin-2-yl)methoxy)-1-(4-(1-methylpiperidin-4-yl)piperazin-1-yl)ethanone dihydrochloride] | -24.8 | 36.5 | 
Cc1cc(C)c(S(=O)(=O)N2CCCCC2COCC(=O)N2CCC(N3CCN(C)CC3)CC2)c(C)c1 (stereo not shown) [Example 231, 2-((1-(mesitylsulfonyl)piperidin-2-yl)methoxy)-1-(4-(4-methylpiperazin-1-yl)piperidin-1-yl)ethanone] | 102 | 83.3 | 
